Patent publication US20050118572A1, “Single cell assessment of viral infection/replication” (The Board of Trustees of the Leland Stanford Junior …, priority 2002, published 2005)

Experiments:
[1] = system: glutathione (GSH); experiment: Intracellular glutathione levels by monochlorobimane fluorescence (flow cytometry); assay type: cell-based, human
Protocol: PBMC were isolated and HIV-1 infected as described in materials and methods. Intracellular glutathione levels were assessed using monochlorobimane fluorescence and samples were analyzed by flow cytometry.

[2] = system: uninfected CD4 T cells and CD8 T cells; assay type: cell-based, human
Protocol: (§1) PBMC were infected with a high HIV-1 dose, incubated for three days with indicated concentrations of Gd-Tex, and assessed for annexin-V by flow cytometry. Live CD3 cells were gated and apoptotic percentages quantified for CD4 and CD8 cells.
At Gd-Tex doses below 250 µM, GSH depletion and Gd-Tex toxicity in CD8 T cells and uninfected CD4 T cells was minimal. […] These findings are shown in FIG. 4-5, in which data are shown for subset-defining cell surface marker expression, HIV infection, intracellular GSH and Gd-Tex toxicity (induction of apoptosis and the breaking of the cell permeability barrier), all measured simultaneously for individual cells by 11-color, 13-parameter Hi-D FACS.

[3] = system: HIV-1; conditions: HIV-1 infected PBMC, TCID50=300/1×10^6 cells, FIG. 5
[4] = system: HIV-1 infected CD4 T cells; experiment: Killing / apoptosis (annexin-V, intracellular p24, EMA) of HIV-1 infected CD4 T cells by FACS; assay type: cell-based, human
Protocol: as §1
PBMC were infected with high and low HIV-1 doses and treated for six days with the indicated concentrations and processed as indicated above.
Live CD4 T cells were gated and analyzed for annexin-V and p24 stain.
IL-2 activated, HIV-infected cultures were treated with Gd-Tex at the indicated concentrations for 6 days and processed for flow cytometry. […] Histograms are representative of 4 independent experiments.

With `CC(=O)[O-].CC(=O)[O-].CCc1c(CC)c2cc3nc(cnc4cc(OCCOCCOCCOC)c(OCCOCCOCCOC)cc4ncc4nc(cc1[n-]2)C(CCCO)=C4C)C(C)=C3CCCO.O.[Gd+3]` [Gd-Tex, motexafin gadolinium] the “GSH depletion in CD8 T cells and uninfected CD4 T cells” value ([1]; Gd-Tex doses below 250 µM) was “minimal”, the “GSH depletion in T cells in PBMC” value ([1]; high doses of Gd-Tex) was “depleted GSH” and the “Gd-Tex toxicity in CD8 T cells and uninfected CD4 T cells” value [2] was “minimal”. For the same compound, the “Killing of uninfected CD4 T cells and CD8 T cells” value [2] was “did not kill”, the “HIV-1 production (RT activity, p24 levels)” value [3] was “inhibition of HIV-1 production” and the “Killing of HIV-infected (p24+) CD4 T cells” value ([4]; 3 uM Gd-Tex) was “selectively killed”. The “p24 cells among live CD4 T cells infected with HIV-1” value ([4]; 50 μM Gd-Tex, 6 days) was “decrease of p24 cells” and the “Apoptosis induction in HIV-1 infected CD4 T cells” value ([4]; Gd-Tex concentrations not cytotoxic to uninfected cells) was “selectively induced apoptosis”.
